Assay results: US4192889A, “Ruminant feeds containing trichloroethyl esters of essential amino acids” (E. R. Squibb & Sons, Inc., priority 1979, dated 1980)

How the values were obtained:
[1] = tested on: volatile fatty acid concentrations in the in vitro rumen fermentation; experiment: in vitro rumen fermentation, volatile fatty acids (alfalfa hay:concentrate 3:1); parameters: species or system sheep; conditions: for Acetic / Acetic Propionic (ratio) / Propionic / Total Acids / butyric: Table 10, 0.2 mg/ml
From the text: Based on the knowledge of the foregoing, a practical method of testing growth promoters in vitro has been the simulation of conditions in the rumen with fermentation reactions. Such a method comprises adding the test substance to a substrate such as ground hay, corn or mixtures of feed materials. Rumen fluid from a fasted ruminant (bovine, ovine, or caprine) is mixed with a buffer solution and added to a fermentation flask containing the test additive and the substrate. The flask is purged of oxygen, stoppered with a pressure release valve, and incubated at 39°±1° C. for periods up to 48 hours. The change in volatile fatty acid concentration is determined by chemical analysis of the rumen fluid before and after fermentation. As a control, the above experiment is run without a test additive.
(§1) A one gram sample of substrate ground through a 1 mm screen is weighted into 100 ml. lipless beakers equipped with gas-release valves. The substrate consists of alfalfa hay containing approximately 16% protein and a concentrate containing ground corn 60.7%, alfalfa meal 17.5%, molasses 10.0%, soybean meal 5.3%, wheat bran 5.0%, trace mineralized salt 1.0%, limestone 0.5% and Vitamin D 300,000 I.U./ton, mixed in the proportion 3:1. The experimental composition is added to the substrate. 25 ml. of filtered rumen fluid obtained from fasted sheep maintained on feed the same as the above mentioned substrate and 25 ml. of McDougal's buffer solution serve as the inoculum. The buffer solution is as follows:
(§2) The fermentation mixture is flushed with carbon dioxide and the vessel is capped with a gas release valve. The fermentation vessel (beaker) is placed in a water bath and incubated at 39° C.±1° for six hours. The sample is mixed every hour by shaking the beaker.
(§3) At the end of the 6-hour fermentation period the sample is strained through 4 layers of cheesecloth into a sample bottle containing 1 ml. saturated solution of mercuric chloride. The sample is frozen immediately until analyzed for the volatile fatty acids (VFA) (mg/100 ml.). Prior to analysis, each sample is acidified with 30% phosphoric acid and then analyzed by gas chromatography using a column containing 5% nonylphenoxypolyoxyethylene ethanol plus 0.5% phosphoric acid on 100-120 mesh Gas Chrom S. The acids determined are acetic, propionic, butyric, isobutyric, valeric and isovaleric acids. Total VFA is considered as the addition of these acids. The ratio of acetic:propionic (A:P) is obtained by dividing the concentration of acetic acid by that of propionic acid.
The effect of various compounds alone on the volatile fatty acid concentrations was determined by the procedure of Example 3. […] A direct comparison between phenylalanine and phenylalanine trichloroethyl ester is provided.

[2] = tested on: volatile fatty acid concentrations in fistulated sheep; experiment: volatile fatty acid concentrations in vivo in sheep with rumen fistulae (227 g concentrate + 680 g alfalfa hay); parameters: species or system sheep (wethers); conditions: for acetic:propionic ratio (in words) / proportion of propionic acid (in words): fistulated sheep; for Total acids (mg/100 ml.): Table 3, treatment day 7
From the text: (§4) Mature sheep (wethers) fitted with permanent rumen fistulae were used to determine the effect of L-phenylalanine, 2,2,2-trichloroethyl ester on volatile fatty acid concentrations in vivo (3 wethers per treatment). The animals were individually penned and fed 227 g. of concentrate (described in Example 3) and 680 g. of alfalfa hay once daily. The test compound was admixed with the concentrate. The sheep were medicated for 7 days. Samples for analysis were obtained before (Day 0) and after treatment (Day 7) approximately 6 hours after feeding.

[3] = body weight gain and feed efficiency of growing lambs; type: in vivo, lambs (wether and ewe)
Procedure: A test was conducted to determine if feeding L-phenylalanine 2,2,2-trichloroethyl ester to growing lambs was effective in improving growth and feed efficiency. Wether and ewe lambs were divided into groups of 30 lambs each. They were acclimated to their pens for 2 weeks prior to treatment.
The feed supplied to the animals had the following composition
The test compound in an amount of 0.0055% (50 g/ton) was admixed with the above feed composition.
Body weights and feed consumption were recorded at 0, 2, 4 and 6 weeks. Feed efficiencies were calculated.
The test procedure of Example 9 was followed to test the growth effect and feed efficiency of glycine 2,2,2-trichloroethyl ester on growing lambs. The feed composition of Example 9 was used but contained glycine 2,2,2-trichloroethyl ester in an amount of 0.0044% (40 g/ton). There were 44 lambs in the control group receiving the feed composition without additive and 42 lambs receiving the feed composition containing the amino acid ester.
The test procedure of Example 9 was followed to test the growth effect and feed efficiency of L-phenylalanine 2,2,2-trichloroethyl ester on growing lambs. The feed composition of Example 9 was used but contained 0.0088% (80 g/ton) of this amino acid ester. There were 59 lambs in the control group fed the feed without additive and 58 lambs in the group fed the feed composition containing the test compound.

[4] = tested on: volatile fatty acid concentrations in the in vitro rumen fermentation; experiment: in vitro rumen fermentation, volatile fatty acids (high concentrate substrate, alfalfa hay:concentrate 1:3); parameters: species or system sheep
Procedure: as §1, §2, §3
The procedure is described in Example 3. In this example, however, the substrate consisted of alfalfa hay and concentrate in the ratio of 1:3 and inoculum was obtained from sheep fed alfalfa and concentrate in the ratio of 1:3. The concentrate (Fit-N-Fresh)is commercially available from Agway, Inc. and contains grain products, plant protein products, processed grain by-products, cane molasses, minerals, vitamins and a preservative.
The 2,2,2-trichloroethyl ester of glycine was tested in vitro in a manner similar to that described in Example 4.

[5] = tested on: volatile fatty acid concentrations in the rumen of fistulated wethers; experiment: volatile fatty acid concentrations in the rumen of fistulated wethers (454 g concentrate + 454 g chopped mixed hay); type: in vivo, sheep (wethers); conditions: for Total acids (mg/100 ml): Table 4, treatment day 7
From the text: as §4
An experiment similar to that described in Example 5 was performed except that the animals (3 per treatment) were fed 454 g. of concentrate (described in Example 3) and 454 g. of chopped mixed (grasses) hay.

[6] = fistulated wethers, concentrate/mixed hay diet

Structure (SMILES)	Acetic [1]	Acetic Propionic (ratio) [1]	Propionic [1]	Total Acids [1]	butyric [1]	acetic:propionic ratio (in words) [2]	proportion of propionic acid (in words) [2]	acetic:propionic ratio (in words) [4]	propionic acid concentration (in words) [4]	other results
N[C@@H](Cc1ccccc1)C(=O)O [L-phenylalanine]	95 % of Control	100 % of Control	94 % of Control	96 % of Control	97 % of Control					
O=CC(Cl)(Cl)Cl [chloral]	88 % of Control	80 % of Control	110 % of Control	96 % of Control	110 % of Control					
N[C@@H](Cc1ccc(Cl)cc1)C(=O)O (racemic) [p-chlorophenylalanine]	91 % of Control	101 % of Control	91 % of Control	91 % of Control	92 % of Control					
NCC(=O)OCC(Cl)(Cl)Cl [2,2,2-trichloroethyl ester of glycine, aminoacetic acid 2,2,2-trichloroethyl ester]						decreasing the acetic:propionic ratio	effective in increasing the proportion of propionic acid	decreasing the acetic:propionic ratio	effective in increasing propionic acid concentration	Total acid (mg/100 ml) ([2]; Table 6, 500 mg/head/day, treatment): 731 mg/100 ml; Weight gain ([3]; Table 8, 0.0044% (40 g/ton) in feed, 0-2 wks, control 2.32): 2.31 kg; Weight gain ([3]; Table 8, 0.0044% (40 g/ton) in feed, 0-4 wks, control 5.09): 5.13 kg; Feed efficiency gain/feed ([3]; Table 8, 0.0044% (40 g/ton) in feed, 0-6 wks, control 0.148): 0.154 gain/feed; Weight gain ([3]; Table 8, 0.0044% (40 g/ton) in feed, 0-6 wks, control 7.18): 7.37 kg
N[C@@H](Cc1ccccc1)C(=O)OCC(Cl)(Cl)Cl [L-Phenylalanine 2,2,2-trichloroethyl ester]						decreased the acetic:propionic ratio	increased the proportion of propionic acid	decreasing the acetic:propionic ratio	effective in increasing the propionic acid concentration	Total acids (mg/100 ml) ([5]; 200 mg/head/day): 663 mg/100 ml; Total acids (mg/100 ml) ([5]; 500 mg/head/day): 734 mg/100 ml; acetic:propionic ratio (in words) [5, 6]: decreasing the acetic:propionic ratio; proportion of propionic acid (in words) [5, 6]: effective in increasing the proportion of propionic acid; Total acids (mg/100 ml.) ([2]; 200 mg/head/day): 667 mg/100 ml.; Total acids (mg/100 ml.) ([2]; 500 mg/head/day): 624 mg/100 ml.; acetic to propionic acid ratio (in words) ([1]; at all levels): decreasing the acetic to propionic acid ratio; propionic acid concentrations (in words) ([1]; at all levels): effective in increasing the propionic acid concentrations; feed efficiency of growing lambs (in words) ([3]; 0.0055% (50 g/ton) in the feed): improving feed efficiency; gains of growing lambs (in words) ([3]; 0.0055% (50 g/ton) in the feed): effective in increasing gains; Body weight gain ([3]; Table 7, 0.0055% (50 g/ton) in feed, 0-2 wks., control 2.47): 2.97 kg; Body weight gain ([3]; Table 7, 0.0055% (50 g/ton) in feed, 0-4 wks., control 5.80): 5.82 kg; Body weight gain ([3]; Table 7, 0.0055% (50 g/ton) in feed, 0-6 wk., control 8.51): 9.08 kg; Feed efficiency (gain/unit of feed) ([3]; Table 7, 0.0055% (50 g/ton) in feed, 0-6 wks., control 0.190): 0.196 gain/unit of feed; Weight gain ([3]; Table 9, 0.0088% (80 g/ton) in feed, 0-2 wks, control 1.50): 1.49 kg; Weight gain ([3]; Table 9, 0.0088% (80 g/ton) in feed, 0-4 wks, control 4.44): 4.63 kg; Feed efficiency gain/feed ([3]; Table 9, 0.0088% (80 g/ton) in feed, 0-6 wks, control 0.160): 0.168 gain/feed; Weight gain ([3]; Table 9, 0.0088% (80 g/ton) in feed, 0-6 wks, control 7.56): 7.81 kg
